According to patent US20200352918A1, “COMPOUNDS AND METHODS FOR TREATING OR PREVENTING FIBROSIS” (priority 2019, published 2020):

Tests used:
[1] = test system: bleomycin model of lung injury; assay: Bleomycin-induced pulmonary fibrosis in aged mice; format: in vivo
Procedure: To define the anti-fibrotic effect of AA5, a bleomycin model of lung injury in aged mice was used as a model of lung fibrosis (FIG. 30A). 52-week-old mice were challenged with bleomycin (3 U/kg) by the oropharyngeal route to induce lung injury, followed by systemic administration of AA5 (20 mg/kg) or DMSO, from days 7-21 post bleomycin injury. Naïve mice were maintained as controls. The mice were sacrificed on day 21 and the total collagen content of the lungs was quantified using the hydroxyproline assay. […] The percentage of fibrotic areas from each section was quantified using hematoxylin and eosin staining, tiled and imaged on a Zeiss Axioscope microscope at 2.5× and quantified using the spline contour tool using the ZEN 2011 software.
Naive mice (n=4) without bleomycin were also monitored in the same manner throughout treatment period. […] Data represent min-max and median of collagen content relative to total protein content. ***P<0.001 **P<0.01 using one-way ANOVA and Sidak's multiple comparison test. FIGS. 30C and 30D show a representative H&E section of bleomycin treated lungs with the borders of the lung and fibrotic areas marked using the spline contour tool (FIG. 30C). […] Scale bar, 200 μm. […] Scale bars, 100 μm.

[2] = test system: iFA phenotype of mesenchymal-like cells on 13 kPa hydrogels; assay: iFA resolution screen (reversal of fibrosis) in the iFA model; format: cell-based, human
Procedure: Signal-to-background (S/B) ratio, standard variation and variation coefficients were calculated as the signal of DMSO treated wells divided by the signal of the hit compound (AA5) treated wells. Z′ values were used to measure assay quality which was calculated by the formula of Z′=1−3(SDTotal+SDBackground)/(MeanTotal−MeanBackground)(Inglese et al., 2006) where SDTotal and MeanTotal are the standard deviation and mean of signal for DMSO treated wells, and SDBackground and MeanBackground are the standard deviation and mean of signal for AA5 treated wells. Data normalization and curve fitting were performed as previously reported (Kariv et al., 1999, J Biomol Screen 4, 27-32.). Z′ values were obtained for the number of cellular aggregates and also calculated a phenotypic cell index as the product of cell number x area/Log(number of iFA aggregates+5). Secondary screening using α-SMA and collagen deposition was employed to further ensure efficacy and resolution of the iFA phenotype of the compounds. For the resolution screen, cells were seeded in a 96-well plate as mentioned above and compounds were added at day 13 to analyze their capacity to resolve the iFA phenotype using the same readouts as above. Dose response experiments were carried out as in the secondary screen but with at least 12 steps of a 1:1 dilution resulting in final compound concentrations from 500 μM to high nanomolar ranges.
The primary assay involved plating together the iPSCs and Table 1 compounds sourced from the library on day 1 on the hydrogel and examining the phenotype on day 7 of the culture as described herein. The secondary screen repeated the assay using compound sourced commercially or from additional library materials. The dose response refers to a 20 point dose course that ranges from picomolar to millimolar concentrations. […] As described herein, the cellular phenotype parameters evaluated included size, fluorescence intensity of the iFA phenotype, the shape factor of the cells/aggregates, and the cells' viability in the presence of viability dyes (Calcein AM).

ocular mucosal fibrosis = assay: Murine model of ocular mucosal fibrosis (OVA induced); format: in vivo, mice
Procedure: Female […] mice 8-10 week of age were used for all experiments. The mice were housed in the institute's vivarium in compliance with the Animal Research Committee. Immune-mediated conjunctivitis was induced in by i.p. injection of 200 μl of immunization mix containing: 10 μg Ovalbumin (OVA) (Sigma-Aldrich), 4 mg aluminium hydroxide (Thermo Scientific), and 300 ng of pertussis toxin (Sigma-Aldrich). After 2 weeks, mice received topical OVA challenge ([…]) once a day for 7 days for the development of fibrosis. To evaluate the efficacy of AA5 in preventing fibrosis, topical OVA challenge was accompanied by addition of 1, 10, 100 or 1000 ug/mouse (n=12) AA5 administered in both eyes in a volume of 5 ul for a total of 7 days.
To evaluate the efficacy of AA5 in resolving fibrosis, topical OVA challenge was continued for an additional 7 days (days 14-21) after the initial OVA sensitization for the development of fibrosis. From day 21 to 28, OVA challenge was accompanied by addition of 1, 10, 100 or 1000 ug/mouse (n=12) AA5. 1% DMSO administered in both eyes in a 5 µl volume of PBS was used as control. Both eyes were scored in the same manner. For the scoring, a cumulative score of eyelid swelling (out of 3) and tearing (out of 3) was taken. At the end of the experiment at day 21 (prevention studies) or […] (resolution studies), mice were sacrificed and whole eyes were collected, fixed in 10% (v/v) formalin and processed by the standard methods for paraffin embedding. Sections (5 μm) were stained with Gomori Trichrome and H&E and imaged. Tissue sections were reviewed by 4 independent observers, including two observers who were blinded to the groups—a pathologist and another researcher. Conjunctivae were dissected from whole eyes and either processed for RNA or hydroxyproline.
Conjunctiva or LSCs were boiled in 50 μl or 400 μl of 6 M HCl, respectively at 100° C. overnight. Hydroxyproline levels were measured in the acid hydrolysis method using a kit from Biovision Inc. (Milpitas, Calif.) using the manufacturer's instructions. […]

## Cc1c(C(=O)Nc2nc3ccccc3s2)sc2nc3cc4c(cc3cc12)OCO4 [AA5]
[1]; AA5 20 mg/kg systemic, days 7-21 post bleomycin, day 21, vs vehicle
  Total collagen of the lungs (hydroxyproline assay): significantly reduced total collagen
[1]; AA5 20 mg/kg vs vehicle, IF
  Type II marker pro-Surfactant Protein C (proSPC): qualitatively larger number
[1]; AA5 20 mg/kg, day 21
  Percentage of fibrotic areas (H&E): vehicle treated mice displayed significantly more fibrotic areas compared to the AA5 treated animals
[2]; AA5-resolution
  Levels of Collagen I and α-SMA (resolution of iFA phenotype): reduction
[2]; phenotype formed over 10 days, then compounds added
  Reversal of fibrosis: Yes
Ocular mucosal fibrosis; AA5 1000 ug
  Gomori Trichrome sections of whole eyes: conjunctiva thickness and collagen deposition: qualitatively decreased thickness of conjunctiva and collagen deposition
Ocular mucosal fibrosis; AA5-prevention and AA5-resolution at 0.1 and 1 mg doses
  Collagen content of the conjunctivae: significant reduction
Ocular mucosal fibrosis; topical, preventive and resolutive treatments, vs DMSO-treated eyes
  Clinical swelling, tearing and inflammation of eyes: less clinical swelling, tearing and inflammation
